According to patent US9907790B2, “Solid forms of an ASK1 inhibitor” (Gilead Sciences, Inc., priority 2014, dated 2018):

Legend:
[1] = Form change on heating, drying or exposure to ambient conditions; format: physicochemical; settings: for form change at ambient conditions: ambient temperature and humidity / storage at ambient conditions; for form change upon drying: drying (air-drying at RT)
Excerpt: Form V has only been truly isolated by growth of single crystals.
Isolated solids were dried with filter paper to remove residual solvents and analyzed by DSC, TGA and KF. […] (FIG. 45).
The sample was stirred for more than two months before being placed into storage without agitation and at ambient conditions. […] The material was collected by vacuum filtration and dried under ambient conditions. […] (FIG. 48).

[2] = High humidity stress test at 75% RH/RT; format: physicochemical

Row | Compound | deliquescence in high humidity stress test [2] | further results
1 | Cc1cc(F)c(C(=O)Nc2cccc(-c3nncn3C(C)C)n2)cc1-n1cnc(C2CC2)c1 [Compound I Form II, 5-(4-cyclopropyl-1H-imidazol-1-yl)-N-(6-(4-isopropyl-4H-1,2,4-triazol-3-yl)pyridin-2-yl)-2-fluoro-4-methylbenzamide] |  | form change after heating ([1]; heating to about 110° C.): No form change; form change after heating ([1]; heating up to about 180° C.): re-crystallizes to Compound I Form VI
2 | Cc1cc(F)c(C(=O)Nc2cccc(-c3nncn3C(C)C)n2)cc1-n1cnc(C2CC2)c1 [Compound I Form IX, 5-(4-cyclopropyl-1H-imidazol-1-yl)-N-(6-(4-isopropyl-4H-1,2,4-triazol-3-yl)pyridin-2-yl)-2-fluoro-4-methylbenzamide] |  | form change at ambient conditions [1]: converts to Form I
3 | Cc1cc(F)c(C(=O)Nc2cccc(-c3nncn3C(C)C)n2)cc1-n1cnc(C2CC2)c1 [Compound I Form V, 5-(4-cyclopropyl-1H-imidazol-1-yl)-N-(6-(4-isopropyl-4H-1,2,4-triazol-3-yl)pyridin-2-yl)-2-fluoro-4-methylbenzamide] |  | form change upon drying [1]: readily desolvates to Compound I Form II; form change upon drying ([1]; listed as Form V): converting to Form II
4 | Cc1cc(F)c(C(=O)Nc2cccc(-c3nncn3C(C)C)n2)cc1-n1cnc(C2CC2)c1 [Compound I Form VIII, 5-(4-cyclopropyl-1H-imidazol-1-yl)-N-(6-(4-isopropyl-4H-1,2,4-triazol-3-yl)pyridin-2-yl)-2-fluoro-4-methylbenzamide] |  | form change at ambient conditions [1]: rapidly loses water and converts to Compound I Form VI
5 | Cc1cc(F)c(C(=O)Nc2cccc(-c3nncn3C(C)C)n2)cc1-n1cnc(C2CC2)c1.O=C(O)/C=C\C(=O)O [Compound I Maleate Form I, 5-(4-cyclopropyl-1H-imidazol-1-yl)-N-(6-(4-isopropyl-4H-1,2,4-triazol-3-yl)pyridin-2-yl)-2-fluoro-4-methylbenzamide maleate] | did not show any evidence of deliquescence | 
6 | CS(=O)(=O)O.Cc1cc(F)c(C(=O)Nc2cccc(-c3nncn3C(C)C)n2)cc1-n1cnc(C2CC2)c1 [Compound I Mesylate Form I, 5-(4-cyclopropyl-1H-imidazol-1-yl)-N-(6-(4-isopropyl-4H-1,2,4-triazol-3-yl)pyridin-2-yl)-2-fluoro-4-methylbenzamide mesylate] | did not show any evidence of deliquescence | 
7 | Cc1cc(F)c(C(=O)Nc2cccc(-c3nncn3C(C)C)n2)cc1-n1cnc(C2CC2)c1.O=C(O)C(=O)O [Compound I Oxalate Form I, 5-(4-cyclopropyl-1H-imidazol-1-yl)-N-(6-(4-isopropyl-4H-1,2,4-triazol-3-yl)pyridin-2-yl)-2-fluoro-4-methylbenzamide oxalate] | did not show any evidence of deliquescence | 
8 | Cc1cc(F)c(C(=O)Nc2cccc(-c3nncn3C(C)C)n2)cc1-n1cnc(C2CC2)c1.O=C(O)CCC(=O)O [Compound I Succinate Form I, 5-(4-cyclopropyl-1H-imidazol-1-yl)-N-(6-(4-isopropyl-4H-1,2,4-triazol-3-yl)pyridin-2-yl)-2-fluoro-4-methylbenzamide succinate] | did not show any evidence of deliquescence | 
9 | Cc1cc(F)c(C(=O)Nc2cccc(-c3nncn3C(C)C)n2)cc1-n1cnc(C2CC2)c1.O=S(=O)(O)O [Compound I Sulfate Form I, 5-(4-cyclopropyl-1H-imidazol-1-yl)-N-(6-(4-isopropyl-4H-1,2,4-triazol-3-yl)pyridin-2-yl)-2-fluoro-4-methylbenzamide sulfate] | did not show any evidence of deliquescence | 
10 | Cc1cc(F)c(C(=O)Nc2cccc(-c3nncn3C(C)C)n2)cc1-n1cnc(C2CC2)c1.Cc1ccc(S(=O)(=O)O)cc1 [Compound I Tosylate Form I, 5-(4-cyclopropyl-1H-imidazol-1-yl)-N-(6-(4-isopropyl-4H-1,2,4-triazol-3-yl)pyridin-2-yl)-2-fluoro-4-methylbenzamide tosylate] | did not show any evidence of deliquescence | 
